Experimental data reported in the supplement of paper PMC11208160.

Assay: recombinant barcode read abundance after kanamycin selection (control-corrected) (log10(CPM+1)); higher = more efficient recombination; sequences stand for … in AGTGCAGAGAAAATCGGCCAGTTTTCTCTGCCTGCAGTCCGCATGCCGT…AGATTTATGCAGCGGACTGCCTTTCTCCCAAAGTGATAAACCGGACAGTATCATGGACCGGTTTTCCCGGTAATCCGTATTTGCAAGGTTGGTTTCACT; site = the 11-nt target
Procedure, shortened: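 Oligos holding a promoter, target, barcode and the J23119-driven first 104 bases of the bridge RNA were Gibson-cloned into a vector that supplied the other 73 bp plus a T7-inducible recombinase. This library was co-electroporated with a donor plasmid into E. coli. Two replicates went on chloramphenicol/ampicillin LB agar (control) and two on chloramphenicol/ampicillin/kanamycin with 0.1 mM IPTG. Recombination efficiency is read from averaged, control-corrected barcode counts per million at recombinant junctions, reported as log10(CPM+1).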
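Note: IS621 recombinase and bridge RNA in Escherichia coli cells.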

Sequence | recombinant barcode read abundance (log10)
GCTAGGGCTTGGGTTCTAACCTGTTGCAG (site GCTAGGGCTCT) | 2.94
GCTCAGACTTGGGTTCTAACCTGTTGCCT (site GCTCAGACTAG) | 1.78
GCTCAGACTTGGGTTCTAACCTGTTGCCT (site GCTCAGCCTAG) | 0.0925
GCTCAGACTTGGGTTCTAACCTGTTGCCT (site GCTCAGGCTAG) | 0.132
GCTCAGACTTGGGTTCTAACCTGTTGCCT (site GCTCAGTCTAG) | 0.0442
GCTCCTACTTGGGTTCTAACCTGTTGCCT (site GATCCTACTAG) | 0.118
GCTCCTACTTGGGTTCTAACCTGTTGCCT (site GCTCCTACTAG) | 0.0272
GCTCCTACTTGGGTTCTAACCTGTTGCCT (site GGTCCTACTAG) | 0.48
GCTCCTACTTGGGTTCTAACCTGTTGCCT (site GTTCCTACTAG) | 0.108
GCTCGGGCTTGGGTTCTAACCTGTTGCGG (site ATGTCCTCTTG) | 0.0124
GCTCGGGCTTGGGTTCTAACCTGTTGCGG (site GCTCGGGCTCC) | 2.6
GCTCTAGCTTGGGTTCTAACCTGTTGCCT (site GCACAAGCTAG) | 0.0696
GCTCTAGCTTGGGTTCTAACCTGTTGCCT (site GCTCTAGCTAG) | 0.0295
GCTGAGACTTGGGTTCTAACCTGTTGCGT (site CTCTGTCCTCA) | 0.237
GCTGAGACTTGGGTTCTAACCTGTTGCGT (site GCTGAGACTAC) | 2.04
GCTGAGGCTTGGGTTCTAACCTGTTGCTG (site GCTGAGGCTCA) | 1.05
GCTGAGGCTTGGGTTCTAACCTGTTGCTG (site TCTGAGTCTCA) | 0.256
GCTGGGTCTTGGGTTCTAACCTGTTGCCT (site GATGGGTCTAG) | 0.0435
GCTGGGTCTTGGGTTCTAACCTGTTGCCT (site GCTGGGTCTAG) | 0.814
GCTTACCCTTGGGTTCTAACCTGTTGCTA (site GCTTACCCTTA) | 0.36
GCTTACCCTTGGGTTCTAACCTGTTGCTA (site TAGCTAGCTAC) | 0.0382
GCTTCGGCTTGGGTTCTAACCTGTTGCCT (site GCATCGGCTAG) | 0.193
GCTTCGGCTTGGGTTCTAACCTGTTGCCT (site GCCTCGGCTAG) | 0.0138
GCTTCGGCTTGGGTTCTAACCTGTTGCCT (site GCGTCGGCTAG) | 0.0514
GCTTCGGCTTGGGTTCTAACCTGTTGCCT (site GCTTCGGCTAG) | 0.282
GCTTGAACTTGGGTTCTAACCTGTTGCTT (site GCTTGAACTAA) | 0.292

Sequence | recombinant barcode read abundance (log10)
GCTTGAACTTGGGTTCTAACCTGTTGCTT (site GGTTGAACTAT) | 0.0501
GCTTGGCCTTGGGTTCTAACCTGTTGCCT (site CCTTGGTCTAG) | 0.211
GCTTGGCCTTGGGTTCTAACCTGTTGCCT (site GCTTGGCCTAG) | 0.188
GCTTGGTCTTGGGTTCTAACCTGTTGCGA (site CTAGCTCCTAA) | 0.173
GCTTGGTCTTGGGTTCTAACCTGTTGCGA (site GCTTGGTCTTC) | 1.57
GGAAAGACTTGGGTTCTAACCTGTTGCCT (site GGAAAGACTAG) | 1.58
GGAAAGACTTGGGTTCTAACCTGTTGCCT (site GGCAAGACTAG) | 0.18
GGAAAGACTTGGGTTCTAACCTGTTGCCT (site GGGAAGACTAG) | 0.297
GGAAAGACTTGGGTTCTAACCTGTTGCCT (site GGTAAGACTAG) | 0.505
GGAAGCTCTTGGGTTCTAACCTGTTGCTT (site GGAAGCTCTAA) | 0.591
GGAAGCTCTTGGGTTCTAACCTGTTGCTT (site GTACGCTCTAA) | 0.0116
GGAAGGTCTTGGGTTCTAACCTGTTGCAT (site ACGTCCACTTG) | 0.0537
GGAAGGTCTTGGGTTCTAACCTGTTGCAT (site GGAAGGTCTAT) | 1.98
GGAATGACTTGGGTTCTAACCTGTTGCCT (site GAAATGACTAG) | 0.344
GGAATGACTTGGGTTCTAACCTGTTGCCT (site GCAATGACTAG) | 0.726
GGAATGACTTGGGTTCTAACCTGTTGCCT (site GGAATGACTAG) | 2.02
GGAATGACTTGGGTTCTAACCTGTTGCCT (site GTAATGACTAG) | 0.545
GGACCATCTTGGGTTCTAACCTGTTGCCT (site GGACAATCTAG) | 0.29
GGACCATCTTGGGTTCTAACCTGTTGCCT (site GGACCATCTAG) | 0.915
GGACCATCTTGGGTTCTAACCTGTTGCCT (site GGACGATCTAG) | 0.146
GGACCATCTTGGGTTCTAACCTGTTGCCT (site GGACTATCTAG) | 0.276
GGACCCTCTTGGGTTCTAACCTGTTGCCT (site AGACCCTCTAG) | 1.09
GGACCCTCTTGGGTTCTAACCTGTTGCCT (site CGACCCTCTAG) | 0.406
GGACCCTCTTGGGTTCTAACCTGTTGCCT (site GGACCCTCTAG) | 1.96
GGACCCTCTTGGGTTCTAACCTGTTGCCT (site TGACCCTCTAG) | 0.353
GGACCTCCTTGGGTTCTAACCTGTTGCAT (site GGACCTCCTAA) | 0.342

Sequence | recombinant barcode read abundance (log10)
GGACCTCCTTGGGTTCTAACCTGTTGCAT (site GGACCTCCTAC) | 0.805
GGACCTCCTTGGGTTCTAACCTGTTGCAT (site GGACCTCCTAG) | 0.0883
GGACCTCCTTGGGTTCTAACCTGTTGCAT (site GGACCTCCTAT) | 1.96
GGACCTCCTTGGGTTCTAACCTGTTGCGT (site GGACCTCCTAA) | 0.503
GGACCTCCTTGGGTTCTAACCTGTTGCGT (site GGACCTCCTAC) | 3.05
GGACCTCCTTGGGTTCTAACCTGTTGCGT (site GGACCTCCTAG) | 0.272
GGACCTCCTTGGGTTCTAACCTGTTGCGT (site GGACCTCCTAT) | 1.71
GGACGATCTTGGGTTCTAACCTGTTGCCT (site GGACAATCTAG) | 0.471
GGACGATCTTGGGTTCTAACCTGTTGCCT (site GGACCATCTAG) | 0.0164
GGACGATCTTGGGTTCTAACCTGTTGCCT (site GGACGATCTAG) | 1.54
GGACGATCTTGGGTTCTAACCTGTTGCCT (site GGACTATCTAG) | 0.357
GGACGCGCTTGGGTTCTAACCTGTTGCGG (site GGACGCGCTCC) | 2.43
GGACGCGCTTGGGTTCTAACCTGTTGCGG (site GGGCCCGCTCC) | 0.075
GGACGGCCTTGGGTTCTAACCTGTTGCCT (site GGACGACCTAG) | 0.523
GGACGGCCTTGGGTTCTAACCTGTTGCCT (site GGACGCCCTAG) | 0.133
GGACGGCCTTGGGTTCTAACCTGTTGCCT (site GGACGGCCTAG) | 1.35
GGACGGCCTTGGGTTCTAACCTGTTGCCT (site GGACGTCCTAG) | 0
GGAGAAGCTTGGGTTCTAACCTGTTGCCT (site GGAGAAGCTAG) | 2.11
GGAGAAGCTTGGGTTCTAACCTGTTGCCT (site GGAGACGCTAG) | 0.569
GGAGAAGCTTGGGTTCTAACCTGTTGCCT (site GGAGAGGCTAG) | 1.15
GGAGAAGCTTGGGTTCTAACCTGTTGCCT (site GGAGATGCTAG) | 0.158
GGAGCTTCTTGGGTTCTAACCTGTTGCCT (site GGAGCTTCTAG) | 1.33
GGAGCTTCTTGGGTTCTAACCTGTTGCCT (site GTACCTTCTAG) | 0.256
GGAGGTCCTTGGGTTCTAACCTGTTGCCG (site ACTCAGACTGT) | 0.161
GGAGGTCCTTGGGTTCTAACCTGTTGCCG (site GGAGGTCCTCG) | 1.79
